This experiment concerns Panel NCI-60 (60 carcinoma cell lines). As to the kind of experiment: Growth inhibition of human panel NCI-60 (60 carcinoma cells) assessed as growth percent at 10 uM measured after 48 hrs by SRB assay relative to control. The class given is functional. Conditions: read-out: Activity. On the technique in general: The SRB assay estimates cell density from bound dye.
For `CS(=O)(=O)c1nccc(-c2c(-c3cccc(O)c3)nc3sccn23)n1`, the growth at 10 µM amounted to 90%.
Next, `CS(=O)(=O)c1nccc(-c2c(-c3cccc(OCCN4CCCC4)c3)nc3sccn23)n1`: 94.2%; `CS(=O)(=O)c1nccc(-c2c(-c3cccc(OCC(=O)c4ccccc4)c3)nc3sccn23)n1`: 94%; `CN(C)CCOc1ccc(-c2nc3sccn3c2-c2ccnc(S(C)(=O)=O)n2)cc1`: 102%.
Next, `CS(=O)(=O)c1nccc(-c2c(-c3ccc(OCCN4CCCC4)cc3)nc3sccn23)n1`: 101%; `CS(=O)(=O)c1nccc(-c2c(-c3cccc(OCCN4CCOCC4)c3)nc3sccn23)n1`: 83.5%; `CS(=O)(=O)c1nccc(-c2c(-c3cccc(OCCc4ccc(F)cc4)c3)nc3sccn23)n1`: 91.6%.
Under `Fc1ccc(CCOc2cccc(-c3nc4sccn4c3-c3ccccc3)c2)cc1` stands 87.5%.
Consider `O=C(COc1cccc(-c2nc3sccn3c2-c2ccncn2)c1)c1ccccc1`, for which the growth at 10 µM was found to be 97%.
Next, `CS(=O)(=O)c1nccc(-c2c(-c3ccc(OCCc4ccccc4)cc3)nc3sccn23)n1`: 91.2%; `CS(=O)(=O)c1nccc(-c2c(-c3ccc(OCc4ccccc4)cc3)nc3sccn23)n1`: 95.1%.
Turning to `CS(=O)(=O)c1cccc(-c2c(-c3cccc(OCc4ccc(F)cc4)c3)nc3sccn23)c1`, the growth at 10 µM was 74.7%.
Next, `CS(=O)(=O)c1cccc(-c2c(-c3cccc(O)c3)nc3sccn23)c1`: 99.2%; `CS(=O)(=O)c1cccc(-c2c(-c3cccc(OCc4ccccc4)c3)nc3sccn23)c1`: 87.6%; `CS(=O)(=O)c1cccc(-c2c(-c3cccc(OCCc4ccccc4)c3)nc3sccn23)c1`: 95.3%.
For `CS(=O)(=O)c1nccc(-c2c(-c3cccc(OS(N)(=O)=O)c3)nc3sccn23)n1`, the growth at 10 µM was found to be 97.9%.
Under `CS(=O)(=O)c1nccc(-c2c(-c3cccc(OCc4ccc(F)cc4)c3)nc3occn23)n1` stands 89.7%; under `Oc1cccc(-c2nc3sccn3c2-c2ccncn2)c1`, 85.5%.
On to `CC(C)N(CCOc1ccc(-c2nc3sccn3c2-c2ccnc(S(C)(=O)=O)n2)cc1)C(C)C`, for which the growth at 10 µM came to 81.1%.
In the case of `CN(C)CCOc1cccc(-c2nc3sccn3c2-c2ccnc(S(C)(=O)=O)n2)c1`, the growth at 10 µM was determined as 93.7%.
`Fc1ccc(COc2cccc(-c3nc4sccn4c3-c3ccncn3)c2)cc1`: the growth at 10 µM turned out to be 76.3%.
Under `COc1cccc(-c2nc3occn3c2-c2ccnc(S(C)(=O)=O)n2)c1` stands 96%; under `Fc1ccc(COc2cccc(-c3nc4sccn4c3-c3ccccc3)c2)cc1`, 97.8%; under `COc1cccc(-c2nc3sccn3c2-c2ccccc2)c1`, 96.6%.
With `Fc1ccc(CCOc2cccc(-c3nc4sccn4c3-c3ccncn3)c2)cc1`, the growth at 10 µM amounted to 96%.
Under `COc1cccc(-c2nc3sccn3c2-c2cccc(S(C)(=O)=O)c2)c1` stands 99.8%.
`CS(=O)(=O)c1cccc(-c2c(-c3cccc(OCCc4ccc(F)cc4)c3)nc3sccn23)c1`: the growth at 10 µM is 82.9%.
For `c1ccc(CCOc2cccc(-c3nc4sccn4c3-c3ccccc3)c2)cc1`, the growth at 10 µM came to 98.9%.
On to `CC(C)N(CCOc1cccc(-c2nc3sccn3c2-c2ccnc(S(C)(=O)=O)n2)c1)C(C)C`, for which the growth at 10 µM is 81.8%.
In the case of `COc1ccc(-c2nc3sccn3c2-c2ccnc(S(C)(=O)=O)n2)cc1`, the growth at 10 µM is 73%.
With `c1ccc(CCOc2cccc(-c3nc4sccn4c3-c3ccncn3)c2)cc1`, the growth at 10 µM was found to be 96.4%.
Under `CS(=O)(=O)c1nccc(-c2c(-c3cccc(OCCc4ccccc4)c3)nc3sccn23)n1` stands 96%; under `CS(=O)(=O)c1nccc(-c2c(-c3ccc(O)cc3)nc3sccn23)n1`, 99.7%.
Under `c1ccc(COc2cccc(-c3nc4sccn4c3-c3ccccc3)c2)cc1` stands 99.3%.

Values taken from ChEMBL document CHEMBL4831500, “Discovery of first-in-class imidazothiazole-based potent and selective ErbB4 (HER4) kinase inhibitors” (Eur J Med Chem, 2021).
